Experimental findings from patent publication US7863265B2, “2-azetidinone derivatives and their use as cholesterol absorption inhibitors for the treatment of hyperlipidaemia” (AstraZeneca AB, priority 2005, dated 2011) are described below.

For data set [1], the system named is 14C-cholesterol absorption. As to the kind of experiment: In vivo testing of cholesterol absorption inhibitors (A). The note with it: 0.2 μmol/kg by gavage, procedure A, C57BL/6 female mice. The procedure: In Vivo Testing of Cholesterol Absorption Inhibitors (A)
C57BL/6 female mice were maintained on regular chow diet and housed in individual cages to collect faeces. Mice were fasted for 3 hours and then gavaged with vehicle or compound. Half an hour later the mice were gavaged with radiolabelled cholesterol. Six hours after the ^14C-cholesterol gavage blood samples were taken via the tail and plasma prepared to determine how much cholesterol were absorbed. 24 hours after the gavage of ^14C-cholesterol the mice were bled and plasma were prepared for analysis. Faeces were collected for 24 hours to assess absorption efficiency.

Data set [2] can be described thus: Absorption in a Caco-2 cells model. The class given is in vitro ADME. The note with it: human. The procedure: (§1) Absorption of the compounds of formula (I) was tested in a Caco-2 cells model (Gastroenterology 1989, 96, 736): […]
The subject of another data set is Caco-2 cells. As to the kind of experiment: Absorption in a Caco-2 cells model. The class given is in vitro ADME. How it is done:
as §1

The Papp is the rate of passage across a membrane or cell layer, normalised by area and donor concentration. Read a low Papp as poor permeation. On to `O=C(COc1ccc([C@@H]2[C@@H](SCC(O)c3ccc(F)cc3)C(=O)N2c2ccc(F)cc2)cc1)NCC(=O)N[C@H](CC1CCCCC1)C(=O)O` (single isomer, unassigned) [Example 4, N-{[4-((2R,3R)-1-(4-fluorophenyl)-3-{[(2R or S)-2-(4-fluorophenyl)-2-hydroxyethyl]thio}-4-oxoazetidin-2-yl)phenoxy]acetyl}glycyl-3-cyclohexyl-D-alanine], for which the “inhibition of 14C-cholesterol absorption” value in data set [1] came to 75%. For the same compound, the Papp in data set [2] came out at 0.04 ×10⁻⁶ cm/s.
For the compound `CC(C)(c1ccccc1)[C@@H](NC(=O)CNC(=O)COc1ccc([C@@H]2[C@@H](SCC(O)c3ccc(F)cc3)C(=O)N2c2ccc(F)cc2)cc1)C(=O)O` (single isomer, unassigned) [Example 5, N-{[4-((2R,3R)-1-(4-fluorophenyl)-3-{[(2R or S)-2-(4-fluorophenyl)-2-hydroxyethyl]thio}-4-oxoazetidin-2-yl)phenoxy]acetyl}glycyl-β,β-dimethyl-D-phenylalanine], the “inhibition of 14C-cholesterol absorption” value in data set [1] worked out at 78%.
As for `CC(C)(C)[C@@H](NC(=O)CNC(=O)COc1ccc([C@@H]2[C@@H](SC[C@H](O)c3ccc(F)cc3)C(=O)N2c2ccc(F)cc2)cc1)C(=O)O` [Example 3, N-{[4-((2R,3R)-1-(4-fluorophenyl)-3-{[(2R or 6)-2-(4-fluorophenyl)-2-hydroxyethyl]thio}-4-oxoazetidin-2-yl)phenoxy]acetyl}glycyl-3-methyl-D-valine], the “inhibition of 14C-cholesterol absorption” value in data set [1] turned out to be 73%. In addition, in the data set on Caco-2 cells, the Caco value turned out to be 0.02 ×10⁻⁶ cm/s.
